This assay has as its target T1, Acetylcholinesterase (Mus musculus, UniProt P21836).
T1 sequence (P21836 whole entry): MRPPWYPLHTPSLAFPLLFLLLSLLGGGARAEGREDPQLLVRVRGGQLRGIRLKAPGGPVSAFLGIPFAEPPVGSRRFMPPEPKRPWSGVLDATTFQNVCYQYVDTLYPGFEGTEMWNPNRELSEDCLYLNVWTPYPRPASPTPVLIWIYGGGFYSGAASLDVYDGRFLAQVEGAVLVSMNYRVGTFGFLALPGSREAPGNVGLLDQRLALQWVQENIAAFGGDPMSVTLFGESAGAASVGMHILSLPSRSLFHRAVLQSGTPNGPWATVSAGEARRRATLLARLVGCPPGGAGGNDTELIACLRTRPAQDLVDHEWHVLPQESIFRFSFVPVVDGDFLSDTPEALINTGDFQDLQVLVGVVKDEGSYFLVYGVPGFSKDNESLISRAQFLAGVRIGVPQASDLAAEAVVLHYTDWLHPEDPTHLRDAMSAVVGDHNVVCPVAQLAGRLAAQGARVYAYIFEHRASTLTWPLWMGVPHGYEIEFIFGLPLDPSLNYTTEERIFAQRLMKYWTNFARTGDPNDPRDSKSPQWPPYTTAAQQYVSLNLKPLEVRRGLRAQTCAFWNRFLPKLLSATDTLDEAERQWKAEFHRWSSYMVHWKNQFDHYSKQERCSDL
In words: Inhibition of mouse AChE using acetylthiocholine as substrate measured after 300 secs by Ellman's method. For orientation: In Ellman's method for cholinesterases, released thiocholine reacts with DTNB.

Some results are limits rather than exact numbers.

The values below come from ChEMBL document CHEMBL4321822 (J Med Chem, 2019).

On to `COCCN(CC1CCCN(Cc2ccccc2)C1)S(=O)(=O)c1ccc2ccccc2c1` (stereo unspecified), for which the IC50 (as a rule, the concentration needed to halve the response being measured) was more than 10 µM.
